Laboratory results published in article PMC4467461, “Small-molecule activation of SERCA2a SUMOylation for the treatment of heart failure” (Nature Communications, 2015).

Molecular target: T1, SUMO E1 SAE1 V315F mutant (Homo sapiens, UniProt Q9UBE0+Q9UBT2, V315F)
T1 construct: GST (N); made in house; host or cells: Escherichia coli BL21
T1 sequence (Q9UBE0 1-346 V315F): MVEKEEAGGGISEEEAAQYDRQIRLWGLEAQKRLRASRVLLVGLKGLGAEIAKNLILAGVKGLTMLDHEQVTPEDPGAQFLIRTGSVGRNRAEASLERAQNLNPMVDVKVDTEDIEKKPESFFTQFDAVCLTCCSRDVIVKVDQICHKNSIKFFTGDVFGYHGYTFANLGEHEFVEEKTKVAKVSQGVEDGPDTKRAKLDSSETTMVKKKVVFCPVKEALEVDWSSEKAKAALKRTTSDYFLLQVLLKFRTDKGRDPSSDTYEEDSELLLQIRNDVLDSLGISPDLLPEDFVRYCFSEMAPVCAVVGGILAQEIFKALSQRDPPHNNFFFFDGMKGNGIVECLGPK
T1 sequence (Q9UBT2 1-640): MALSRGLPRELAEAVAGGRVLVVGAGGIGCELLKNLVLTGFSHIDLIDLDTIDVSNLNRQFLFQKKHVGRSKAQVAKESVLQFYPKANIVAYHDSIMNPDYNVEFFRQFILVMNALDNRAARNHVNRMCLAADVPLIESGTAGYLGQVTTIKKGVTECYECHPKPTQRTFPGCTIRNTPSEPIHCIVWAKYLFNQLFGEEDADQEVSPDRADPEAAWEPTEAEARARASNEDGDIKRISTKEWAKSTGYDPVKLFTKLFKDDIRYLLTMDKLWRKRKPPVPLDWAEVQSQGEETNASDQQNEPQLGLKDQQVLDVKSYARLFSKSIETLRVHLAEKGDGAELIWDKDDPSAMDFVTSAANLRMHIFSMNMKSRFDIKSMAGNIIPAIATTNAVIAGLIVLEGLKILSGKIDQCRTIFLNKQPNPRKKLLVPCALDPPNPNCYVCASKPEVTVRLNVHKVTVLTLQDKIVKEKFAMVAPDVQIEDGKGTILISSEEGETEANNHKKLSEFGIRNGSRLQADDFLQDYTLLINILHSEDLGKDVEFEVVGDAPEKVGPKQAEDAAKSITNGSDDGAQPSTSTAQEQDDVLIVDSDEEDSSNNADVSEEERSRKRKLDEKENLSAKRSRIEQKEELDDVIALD
Assay: SUMO E1 activity assays with SAE1 V315F mutant
Type: biochemical
Protocol: Figure 3 SUMO-specific activating enzyme, E1, is a direct target of N106. Mechanism of action of N106 on individual steps in the SUMOylation cascade in vitro. (a) Inorganic pyrophosphate resulting from ATP hydrolysis in E1-catalysed SUMO-1 activation in the presence of increasing concentration of N106 compound was assessed by fluorogenic pyrophosphate assay kit. Recombinant human SUMO-specific E1 (0.05 μM), human Ubc9 (0.25 μM), human SUMO-1 (12.5 μM) and ATP (1 mM) were incubated with increasing concentration of N106 for 30 min at 37 °C and quantified using a fluorescence microplate reader. (b) The SAE2-SUMO-1 conjugation was detected followed by western blotting with anti-SAE2 antibodies. SUMO E1 (0.05 μM), SUMO-1 (12.5 μM) and ATP (1 mM) were co-incubated with increasing concentration of N106 for 30 min at 37 °C. The reaction mixtures were separated on 7.5% SDS–PAGE gel under non-reducing conditions. (c) E2-SUMO-1 conjugation was visualized by western blotting with anti-Ubc9 antibody. SUMO E1 (0.05 μM), Ubc9 (0.25 μM), SUMO-1 (12.5 μM) and ATP (1 mM) were incubated without or with increasing concentration of N106 for 30 min at 37 °C. […] (e) ATP hydrolytic activity of WT and mutant SUMO E1 are determined. (f) The E1-SUMO-1 conjugation was detected followed by western blot analysis with anti-SAE2 antibody. *The SAE2-SUMO-1 conjugated bands. […]

ATP hydrolysis activity with N106, compared with wild-type protein (V315F mutant): significantly lower
SUMO E1-SUMO and SUMO E2-SUMO conjugations in the presence of N106, compared with WT (V315F mutant SAE1): weaker
SMILES: COc1ccc(-c2nnc(Nc3nc4c(OC)cccc4s3)o2)cc1 [Compound N106, N-(4-methoxybenzo[d]thiazol-2-yl)-5-(4-methoxyphenyl)-1,3,4-oxadiazol-2-amine]
